In US20170369474A1, “COMPOUNDS, COMPOSITIONS AND METHODS OF USE” (Aquinnah Pharmaceuticals, Inc., priority 2014, published 2017):
Read-outs that look alike come from different tables or passages of the source.

Key:
[1] = tested on: TDP-43 inclusions in PC12 cells stably expressing wild type (WT) TDP-43-GFP; test: Dose response assay for TDP-43 inhibition; type: cell-based; settings: Rattus norvegicus, PC-12
Description: Exemplary compounds of the invention were evaluated for efficacy in inhibiting TDP-43 inclusions using a dose response assay. Briefly, PC12 cells stably expressing wild type (WT) TDP-43-GFP were stressed with 15 μM to induce TDP-43 inclusions. The cells were then treated with exemplary compounds of the invention and the inhibitory effect on TDP-43 inclusions was observed using fluorescent microscopy. The ratio of cells with TDP-43 inclusions was calculated based on the total number of cells with detectable GFP expression. A 12-point dose response curve was generated, and the IC50 for each compound tested was determined.

[2] = tested on: Embryonic mouse hippocampal neurons transduced with TDP-43 EGFP; test: Neuroprotection assay (total dendrite length); type: cell-based; settings: compound at 10 times the IC50 value, treated DIV7, 9, 11; fixed DIV12
Description: CMF dissection buffer: 1× Hank's balanced salt solution (Ca—/Mg, 500 mL) and 10 mM HEPES, pH 7.25-7.3 (IM stock, 5 mL)
Plating media: MEM (Earle salts+/Glutamine, 95 mL), FBS (to 2.5%, 2.5 mL), Pen/Strep (1×, 1 mL), glutamine (1×, 1 mL), and D-glucose (0.6% w/v, 0.6 g)
Feeding media: neurobasal media (96 mL), B27 supplement (2 mL), Pen/Strep (1 mL), and glutamine (1 mL).
Embryonic mouse hippocampal neurons were cultured according to Kaech, S. and Banker, G. (2006) Nat Protoc 1:2406-2415 and dissected at […] from CD1 mice. Once all the hippocampi were removed, they were placed in a 15 mL conical Falcon tube on ice and brought to a final volume of 4.5 mL with CMF dissection buffer. 0.5 mL of a 2.5% trypsin-EDTA solution was then added, and the mixture was incubated at 37° C. for 15 min. […] Neurons were traced and analyzed using NeuronJ.
Results of the neuroprotection assay for exemplary compounds of the invention are summarized in Table 1, wherein A represents an average rescue total dendrite length of >150%; B represents an average rescue total dendrite length of 100-149%; C represents an average rescue total dendrite length of 50-99%; D represents an average rescue total dendrite length of 0-49%; E represents an average rescue total dendrite length of <0%; and ND signifies that the average rescue total dendrite length was not determined.

[3] = tested on: TDP-43 aggregates in motor neurons generated from ALS patient-derived iPSCs; test: Reduction of insoluble TDP-43 levels (immunoblot); type: cell-based; settings: 2 μM for 48 hours
Description: The cells were differentiated into motor neurons for 22 days, then treated with 2 μM of Compounds 100, 101, and Compound 7 for 48 hours. The cells were lysed and TDP-43 aggregate formation was detected by immunoblot.

[4] = tested on: C. elegans expressing A315T hTDP-43; test: Neuroprotection of C. elegans; type: in vivo; settings: 34.8 μM; A315T transgenic animals, second day of adulthood
Description: Age synchronized C. elegans were cultured with 34.8 μM Compound 100 and the effect on the animal's movement and motor neurons were investigated. FIGS. 2A-2C show a comparison between the crawling speed of WT and Tg nematodes expressing wt (FIG. 2A), human wt (FIG. 2B), and A315T hTDP-43 (FIG. 2C) on the second day of adulthood.

Compound	IC50 ([1]; inhibition of TDP-43 inclusions, PC12 cells WT TDP-43-GFP, 12-point dose response, read-out: IC50) [nM]	Average Additive Dendrite Length (%) [2]	Reduction of TDP-43 aggregates in the sarkosyl insoluble fraction [3]	Neuroprotective effect on motor neurons [4]	IC50 [1] [nM]
Cc1ccc(Cl)cc1NS(=O)(=O)c1c(C(=O)N2CCCC2)c(C)n(C)c1C [Compound 100, N-(5-chloro-2-methylphenyl)-1,2,5-trimethyl-4-(pyrrolidine-1-carbonyl)-1H-pyrrole-3-sulfonamide]	101 to 250	B (B represents an average rescue total dendrite length of 100-149%)	reduced dimeric and multimeric TDP-43 aggregates	neuroprotective effect	
CCc1cccc(C)c1NS(=O)(=O)c1c(C(=O)N2CCCC2)c(C)n(C)c1C [Compound 101, N-(2-ethyl-6-methylphenyl)-1,2,5-trimethyl-4-(pyrrolidine-1-carbonyl)-1H-pyrrole-3-sulfonamide]		A (A represents an average rescue total dendrite length of >150%)	reduced dimeric and multimeric TDP-43 aggregates		101 to 250
